The text below walks through data of paper PMC7080406 (eLife, 2020).

Values joined by “and” are separate entries in the source; they are usually repeats but may differ in a detail not shown here. Equal values may be shown once. Read-outs that look alike come from different tables or passages of the source.

For test [1], the target named is T1, MT1 (Homo sapiens, UniProt P48039).
T1 construct: expressed in transfected cells; host or cells: HEK293T (ATCC CRL-11268), transient transfection
Put plainly: [3H]melatonin competition radioligand binding, MT1 membranes. Conditions: read-out: MT1 pKi ± SEM (converted). How it is done: (§1) The Radioligand binding assays were conducted by the NIMH Psychoactive Drug Screening Program (PDSP). The NIMH PDSP is directed by Bryan L. Roth, MD, PhD, at the University of North Carolina at Chapel Hill, North Carolina, and Program Officer Jamie Driscoll at NIMH, Bethesda, MD. Binding assay procedures and protocols are also available online at http://pdspdb.unc.edu/pdspWeb/?site=assays. […] Assay plates were sealed and incubated for 4 hr at 37°C in a humidified incubator until harvesting. Plates were harvested using vacuum filtration onto 0.3% polyethyleneimine pre-soaked 96-well Filtermat A (PerkinElmer) and washed three times with cold wash buffer (50 mM Tris, pH 7.4). Filters were dried and melted with a scintillation cocktail (Meltilex, PerkinElmer). Radioactivity was counted using a Wallac TriLux Microbeta counter (PerkinElmer). Results were analyzed using GraphPad Prism 7.0.

The target of test [2] is T1, MT1. Kind of test: GloSensor Gi/o-mediated cAMP production inhibition assay, MT1. To be noted: for EC50: Gi/o mediated; for MT1 LE: ligand efficiency (based on EC50); for Emax: read-out: MT1 Emax ± SEM. Format: cell-based. Here is the method:
(§2) Briefly, HEK293 T cells (as above) were transiently co-transfected with receptor (MT1 or MT2) and GloSensor cAMP (Promega) plasmids overnight, plated in Poly-L-Lysine coated 384-well white clear bottom plates in DMEM + 1% dialyzed FBS. Cells were used for assays at a minimum of 6 hr after plating. Culture medium was first removed and cells were stimulated with drugs in assay buffer (1x HBSS, 20 mM HEPES, 1 mg/ml BSA, 0.1 mg/ml ascorbic acid, pH 7.4) for 15 min at room temperature (this and all the following steps), followed by addition of a mixture of isoproterenol (final of 100 nM) and luciferin (final of 1 mM) for Gi/o-cAMP production inhibition assays and luciferin (final of 1 mM) for Gs-cAMP production assays. The plates were counted for luminescence after 25 min in a luminescence plate reader. Results were analyzed using GraphPad Prism 7.0.
On the technique in general: Changes in cAMP serve as a functional read-out for many G protein-coupled receptors.

Test [3] addresses T2, MT2 (Homo sapiens, UniProt P49286).
T2 sequence (P49286 1-362): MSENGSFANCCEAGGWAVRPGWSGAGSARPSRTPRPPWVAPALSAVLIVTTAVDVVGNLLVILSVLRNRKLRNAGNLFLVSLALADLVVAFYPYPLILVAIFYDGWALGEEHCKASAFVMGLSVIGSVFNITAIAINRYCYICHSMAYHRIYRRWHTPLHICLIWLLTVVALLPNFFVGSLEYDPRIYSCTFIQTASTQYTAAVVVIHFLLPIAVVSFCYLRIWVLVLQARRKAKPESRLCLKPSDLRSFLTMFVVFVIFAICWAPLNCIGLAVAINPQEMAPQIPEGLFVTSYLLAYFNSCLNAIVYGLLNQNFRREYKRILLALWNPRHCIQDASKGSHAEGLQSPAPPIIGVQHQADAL
Kind of test: [3H]melatonin competition radioligand binding, MT2 membranes. More on the design: expressed in transfected cells; host or cells: HEK293T (ATCC CRL-11268), transient transfection. To be noted: read-out: MT2 pKi ± SEM (converted). Here is the method: as §1

Test [4] concerns the target T2, MT2. Put plainly: GloSensor Gi/o-mediated cAMP production inhibition assay, MT2. Format: cell-based. More on the design: expressed in transfected cells; host or cells: HEK293T (ATCC CRL-11268), transient transfection. Conditions: for MT2/MT1 Selectivity: Antilog (log(Emax/EC50) MT2 - log (Emax/EC50) MT1), values below 1 = MT1 selectivity; for EC50: Gi/o mediated, read-out: MT2 EC50; for Emax: MT2, activation compared to melatonin, read-out: MT2 Emax ± SEM; for MT2 LE: ligand efficiency (based on EC50). Here is the method:
as §2

The mark [5] stands for this setting: SEM, N = 3, read-out: MT1 pEC50 ± SEM (converted).

T1 sequence (P48039 whole entry): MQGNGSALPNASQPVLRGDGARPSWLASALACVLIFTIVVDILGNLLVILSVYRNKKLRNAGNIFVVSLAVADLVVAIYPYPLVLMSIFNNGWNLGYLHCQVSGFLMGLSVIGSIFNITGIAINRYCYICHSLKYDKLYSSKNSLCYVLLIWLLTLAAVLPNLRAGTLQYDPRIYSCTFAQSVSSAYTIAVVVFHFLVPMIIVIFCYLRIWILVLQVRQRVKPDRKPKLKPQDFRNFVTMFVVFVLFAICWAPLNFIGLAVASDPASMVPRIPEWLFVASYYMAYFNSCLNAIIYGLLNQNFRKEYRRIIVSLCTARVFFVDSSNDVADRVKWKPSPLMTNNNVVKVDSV

Consider `Nc1cc(=O)[nH]c(=S)n1CCc1ccccc1` [Compound 62], for which the Ki on MT1 [1] is 47900 nM; on MT2 [3] it was 3240 nM. In addition, the EC50 on MT1 [2] (setting [5]) is 40700 nM; at MT1 [2] (read-out: MT1 EC50), 42700 nM; at MT2 [4] it was 52.5 nM. Further, the “MT1 LE” value at MT1 [2] is 0.36 kcal/mol per non-hydrogen atom. The Emax – broadly, the size of the effect at its maximum, as opposed to the concentration needed – is 54.1 ± 10% on MT1 [2] and below 70% at MT2 [4]. Moreover, the “MT2/MT1 Selectivity” value at MT2 [4] is 875.9 fold. Further, the “MT2 LE” value on MT2 [4] is 0.60 kcal/mol per non-hydrogen atom.
Regarding `CC(=O)c1sc2nc3c(cc2c1N)CCC3` [Compound 45], at MT1 [1], the Ki is 28800 nM. For the same compound, at MT1 [2] (read-out: MT1 EC50), the EC50 was determined as 8710 nM. In addition, on MT1 [2], the “MT1 LE” value is reported as 0.44 kcal/mol per non-hydrogen atom and the Emax was found to be 90.6 ± 14.3%. Besides, the Ki on MT2 [3] is 5500 nM. On MT2 [4], the “MT2/MT1 Selectivity” value was 17 fold and 16.9 fold; the EC50 was determined as 427 nM; the Emax amounted to 75 ± 7.4%; the “MT2 LE” value was 0.56 kcal/mol per non-hydrogen atom.
Take `COC(=O)c1[nH]c2cc(OC)ccc2c1N` [Compound 54]: the Ki at MT1 [1] is 9330 nM. In addition, the EC50 at MT1 [2] (setting [5]) is 871 nM. The EC50 at MT1 [2] (read-out: MT1 EC50) was 741 nM. Further, at MT1 [2], the “MT1 LE” value was 0.54 kcal/mol per non-hydrogen atom and the Emax came out at 82.8 ± 4.3%. The Ki on MT2 [3] is 2750 nM. At MT2 [4], the “MT2/MT1 Selectivity” value worked out at 36.9 fold, the EC50 came out at 18.2 nM, the maximum response (Emax) worked out at 75 ± 3.7% and the “MT2 LE” value is reported as 0.68 kcal/mol per non-hydrogen atom.
On to `COc1cccc(CNC(=O)c2ccno2)c1` [Compound 57, N-[(3-methoxyphenyl)methyl]-1,2-oxazole-5-carboxamide], for which the Ki on MT1 [1] was 14500 nM; on MT2 [3], 4270 nM. Besides, the EC50 at MT1 [2] (setting [5]) was 1910 nM; at MT1 [2] (read-out: MT1 EC50) it was 1780 nM; on MT2 [4], 132 nM. On MT1 [2], the “MT1 LE” value is given as 0.47 kcal/mol per non-hydrogen atom. Further, the Emax at MT1 [2] was 87.5 ± 9.1%; at MT2 [4], below 70%. The “MT2/MT1 Selectivity” value on MT2 [4] came out at 10.3 fold. Moreover, the “MT2 LE” value on MT2 [4] is given as 0.57 kcal/mol per non-hydrogen atom.
As for `COc1cccc([C@@H]2C[C@H]2CNC(=O)C(N)=O)c1` (racemic) [Compound 23, rac-N'-{[(1R,2R)-2-(3-methoxyphenyl)cyclopropyl]methyl}ethanediamide], the Ki is 3800 nM at MT1 [1] and 2750 nM on MT2 [3]. The results for the EC50 at MT1 [2] (setting [5]), at MT1 [2] (read-out: MT1 EC50) and at MT2 [4] were 69.2 nM, 57.5 nM and 20.4 nM, respectively. For the same compound, the “MT1 LE” value on MT1 [2] was 0.56 kcal/mol per non-hydrogen atom. In addition, the figures for the Emax on MT1 [2] and at MT2 [4] were 96.9 ± 5.3% and 91.7 ± 3%, respectively. In addition, the “MT2/MT1 Selectivity” value at MT2 [4] was found to be 2.7 fold. Also, the “MT2 LE” value on MT2 [4] is recorded as 0.60 kcal/mol per non-hydrogen atom.
`NC(=O)c1cc(C(=O)c2ccccc2Cl)c[nH]1` [Compound 47]: the results for the Ki at MT1 [1] and on MT2 [3] were 26300 nM and 1230 nM, respectively. Also, the EC50 on MT1 [2] (read-out: MT1 EC50) was 2340 nM; at MT1 [2] (text value, read-out: MT1 EC50) it was 2340 nM; on MT2 [4], 10 nM and 10.2 nM. Moreover, the “MT1 LE” value on MT1 [2] is given as 0.46 kcal/mol per non-hydrogen atom. In addition, the maximum response (Emax) at MT1 [2] came out at 112 ± 5.2%; on MT2 [4] it was 91.7 ± 3%. Further, at MT2 [4], the “MT2/MT1 Selectivity” value was 187 fold and 186.9 fold. Further, the “MT2 LE” value at MT2 [4] is listed as 0.66 kcal/mol per non-hydrogen atom.
As to `COc1ccc2[nH]cc(CCNC(C)=O)c2c1` [Melatonin, N-acetyl-5-methoxytryptamine, reference compound], the Emax on MT1 [2] was 100 ± 5.6%.
As for `CC(=O)NCC1CCCCN1c1ccnc(C)n1` (stereo not shown) [Compound 29, N-{[1-(2-methylpyrimidin-4-yl)piperidin-2-yl]methyl}acetamide], the Ki at MT1 [1] was 6030 nM. The EC50 on MT1 [2] (setting [5]) is 148 nM. The EC50 on MT1 [2] (read-out: MT1 EC50) came to 144 nM. In addition, at MT1 [2], the “MT1 LE” value was 0.53 kcal/mol per non-hydrogen atom and the Emax was 87.5 ± 4.5%. In addition, at MT2 [3], the Ki was 2450 nM. Further, on MT2 [4], the “MT2/MT1 Selectivity” value amounted to 3.3 fold, the EC50 stood at 34.7 nM, the Emax was below 70% and the “MT2 LE” value is given as 0.58 kcal/mol per non-hydrogen atom.
Consider `COc1cccc(Cn2c(N)cc(=O)[nH]c2=O)c1` [Compound 44, 6-amino-1-[(3-methoxyphenyl)methyl]-1,2,3,4-tetrahydropyrimidine-2,4-dione], for which the Ki on MT1 [1] was 64600 nM. In addition, the EC50 on MT1 [2] (read-out: MT1 EC50) stood at 57500 nM. For the same compound, on MT1 [2], the “MT1 LE” value was 0.33 kcal/mol per non-hydrogen atom and the Emax was 72.8 ± 4.7%. Also, on MT2 [3], the Ki is 11200 nM. Besides, on MT2 [4], the “MT2/MT1 Selectivity” value is 267 fold and 267.2 fold; the EC50 is 263 nM; the Emax was 88.9 ± 6.3%; the “MT2 LE” value is listed as 0.51 kcal/mol per non-hydrogen atom.
